Assay results reported in ChEMBL document CHEMBL1275453, “Resistance trends of the Bacteroides fragilis group over a 10-year period, 1997 to 2006, in Madrid, Spain” (2008).
Values after ≈ are worked out from the molar mass of the structure shown.

Columns and labels:
Type in all cases: functional
[1] = system: Parabacteroides distasonis; assay: Antibacterial activity against Bacteroides distasonis assessed as percent resistant isolates by agar dilution method in presence of clavulanate
Bacteroides ovatus [2] = assay: Antibacterial activity against Bacteroides ovatus assessed as percent resistant isolates by agar dilution method in presence of clavulanate
Bacteroides sp. [3] = assay: Antibacterial activity against Bacteroides spp. assessed as percent resistant isolates by agar dilution method in presence of clavulanate; settings: pooled result: one value given for 4 cell lines, strains, targets or settings
Bacteroides caccae [4] = assay: Antibacterial activity against Bacteroides caccae assessed as percent resistant isolates by agar dilution method in presence of clavulanate
Phocaeicola vulgatus [5] = assay: Antibacterial activity against Bacteroides vulgatus assessed as percent resistant isolates by agar dilution method in presence of clavulanate
Bacteroides uniformis [6] = assay: Antibacterial activity against Bacteroides uniformis assessed as percent resistant isolates by agar dilution method in presence of clavulanate
[7] = system: Bacteroides thetaiotaomicron; assay: Antibacterial activity against Bacteroides thetaiotaomicron assessed as percent resistant isolates by agar dilution me in presence of clavulanate thod
Bacteroides fragilis [8] = assay: Antibacterial activity against Bacteroides fragilis assessed as percent resistant isolates by agar dilution method in presence of clavulanate
Bacteroides stercoris [9] = assay: Antibacterial activity against Bacteroides stercoris isolate by agar dilution method in presence of clavulanate
Parabacteroides merdae [10] = assay: Antibacterial activity against Bacteroides merdae isolate by agar dilution method in presence of clavulanate
Bacteroides eggerthii [11] = assay: Antibacterial activity against Bacteroides eggerthii isolate by agar dilution method in presence of clavulanate
Bacteroides sp. [12] = assay: Antibacterial activity against Bacteroides spp. isolate by agar dilution method in presence of clavulanate
Bacteroides ovatus [13] = assay: Antibacterial activity against Bacteroides ovatus isolate by agar dilution method in presence of clavulanate
[14] = system: Parabacteroides distasonis; assay: Antibacterial activity against Bacteroides distasonis isolate by agar dilution method in presence of clavulanate
Bacteroides caccae [15] = assay: Antibacterial activity against Bacteroides caccae isolate by agar dilution method in presence of clavulanate
Phocaeicola vulgatus [16] = assay: Antibacterial activity against Bacteroides vulgatus isolate by agar dilution method in presence of clavulanate
Bacteroides uniformis [17] = assay: Antibacterial activity against Bacteroides uniformis isolate by agar dilution method in presence of clavulanate
[18] = system: Bacteroides thetaiotaomicron; assay: Antibacterial activity against Bacteroides thetaiotaomicron isolate by agar dilution method in presence of clavulanate
Bacteroides fragilis [19] = assay: Antibacterial activity against Bacteroides fragilis isolate by agar dilution method in presence of clavulanate
Bacteroides fragilis [20] = assay: Antibacterial activity against Bacteroides fragilis assessed as percent resistant isolates
Phocaeicola vulgatus [21] = assay: Antibacterial activity against Bacteroides vulgatus assessed as percent resistant isolates
Bacteroides stercoris [22] = assay: Antibacterial activity against Bacteroides stercoris assessed as percent resistant isolates by agar dilution method; settings: pooled result: one value given for 4 cell lines, strains, targets or settings
Bacteroides ovatus [23] = assay: Antibacterial activity against Bacteroides ovatus assessed as percent resistant isolates by agar dilution method
[24] = system: Parabacteroides distasonis; assay: Antibacterial activity against Bacteroides distasonis assessed as percent resistant isolates by agar dilution method
Bacteroides caccae [25] = assay: Antibacterial activity against Bacteroides caccae assessed as percent resistant isolates by agar dilution method
Phocaeicola vulgatus [26] = assay: Antibacterial activity against Bacteroides vulgatus assessed as percent resistant isolates by agar dilution method
Bacteroides uniformis [27] = assay: Antibacterial activity against Bacteroides uniformis assessed as percent resistant isolates by agar dilution method
[28] = system: Bacteroides thetaiotaomicron; assay: Antibacterial activity against Bacteroides thetaiotaomicron assessed as percent resistant isolates by agar dilution method
Bacteroides fragilis [29] = assay: Antibacterial activity against Bacteroides fragilis assessed as percent resistant isolates by agar dilution method
Bacteroides stercoris [30] = assay: Antibacterial activity against Bacteroides stercoris isolate by agar dilution method
Parabacteroides merdae [31] = assay: Antibacterial activity against Bacteroides merdae isolate by agar dilution method
Bacteroides eggerthii [32] = assay: Antibacterial activity against Bacteroides eggerthii isolate by agar dilution method
Bacteroides sp. [33] = assay: Antibacterial activity against Bacteroides spp. isolate by agar dilution method
Bacteroides ovatus [34] = assay: Antibacterial activity against Bacteroides ovatus isolate by agar dilution method
[35] = system: Parabacteroides distasonis; assay: Antibacterial activity against Bacteroides distasonis isolate by agar dilution method
Phocaeicola vulgatus [36] = assay: Antibacterial activity against Bacteroides vulgatus isolate by agar dilution method
Bacteroides caccae [37] = assay: Antibacterial activity against Bacteroides caccae isolate by agar dilution method
Bacteroides uniformis [38] = assay: Antibacterial activity against Bacteroides uniformis isolate by agar dilution method
[39] = system: Bacteroides thetaiotaomicron; assay: Antibacterial activity against Bacteroides thetaiotaomicron isolate by agar dilution method

CC1(C)S[C@@H]2[C@H](NC(=O)[C@H](N)c3ccc(O)cc3)C(=O)N2[C@H]1C(=O)O [AMOXICILLIN]
Activity [1]: 16.3%
Activity (Bacteroides ovatus [2]): 17.1%
Activity (Bacteroides sp. [3]): 19.6%
Activity (Bacteroides caccae [4]): 20%
Activity (Phocaeicola vulgatus [5]): 21.3%
Activity (Bacteroides uniformis [6]): 12.3%
Activity [7]: 4.9%
Activity (Bacteroides fragilis [8]): 6.2%
MIC50 (Bacteroides stercoris [9]): 2 µg/mL
MIC90 (Bacteroides stercoris [9]): 16 µg/mL
MIC50 (Parabacteroides merdae [10]): 2 µg/mL
MIC90 (Parabacteroides merdae [10]): 16 µg/mL
MIC50 (Bacteroides eggerthii [11]): 2 µg/mL
MIC90 (Bacteroides eggerthii [11]): 16 µg/mL
MIC50 (Bacteroides sp. [12]): 2 µg/mL
MIC90 (Bacteroides sp. [12]): 16 µg/mL
MIC50 (Bacteroides ovatus [13]): 1 µg/mL
MIC90 (Bacteroides ovatus [13]): 16 µg/mL
MIC50 [14]: 4 µg/mL
MIC90 [14]: 16 µg/mL
MIC50 (Bacteroides caccae [15]): 2 µg/mL
MIC90 (Bacteroides caccae [15]): 16 µg/mL
MIC50 (Phocaeicola vulgatus [16]): 2 µg/mL
MIC90 (Phocaeicola vulgatus [16]): 16 µg/mL
MIC50 (Bacteroides uniformis [17]): 1 µg/mL
MIC90 (Bacteroides uniformis [17]): 16 µg/mL
MIC50 [18]: 2 µg/mL
MIC90 [18]: 16 µg/mL
MIC50 (Bacteroides fragilis [19]): 1 µg/mL
MIC90 (Bacteroides fragilis [19]): 8 µg/mL

COc1c(N2C[C@@H]3CCCN[C@@H]3C2)c(F)cc2c(=O)c(C(=O)O)cn(C3CC3)c12 [MOXIFLOXACIN]
Activity (Bacteroides fragilis [20]): 27.3%
Activity (Phocaeicola vulgatus [21]): 54.7%
Activity (Bacteroides stercoris [22]): 28.3%
Activity (Bacteroides ovatus [23]): 24.4%
Activity [24]: 18.6%
Activity (Bacteroides caccae [25]): 22.2%
Activity (Phocaeicola vulgatus [26]): 17%
Activity (Bacteroides uniformis [27]): 24.5%
Activity [28]: 17%
Activity (Bacteroides fragilis [29]): 9.7%
MIC50 (Bacteroides stercoris [30]): 2 µg/mL (≈ 4.98 µM)
MIC90 (Bacteroides stercoris [30]): 16 µg/mL (≈ 39.9 µM)
MIC50 (Parabacteroides merdae [31]): 2 µg/mL (≈ 4.98 µM)
MIC90 (Parabacteroides merdae [31]): 16 µg/mL (≈ 39.9 µM)
MIC50 (Bacteroides eggerthii [32]): 2 µg/mL (≈ 4.98 µM)
MIC90 (Bacteroides eggerthii [32]): 16 µg/mL (≈ 39.9 µM)
MIC50 (Bacteroides sp. [33]): 2 µg/mL (≈ 4.98 µM)
MIC90 (Bacteroides sp. [33]): 16 µg/mL (≈ 39.9 µM)
MIC50 (Bacteroides ovatus [34]): 2 µg/mL (≈ 4.98 µM)
MIC90 (Bacteroides ovatus [34]): 32 µg/mL (≈ 79.7 µM)
MIC50 [35]: 1 µg/mL (≈ 2.49 µM)
MIC90 [35]: 16 µg/mL (≈ 39.9 µM)
MIC50 (Phocaeicola vulgatus [36]): 2 µg/mL (≈ 4.98 µM)
MIC90 (Phocaeicola vulgatus [36]): 16 µg/mL (≈ 39.9 µM)
MIC50 (Bacteroides caccae [37]): 2 µg/mL (≈ 4.98 µM)
MIC90 (Bacteroides caccae [37]): 32 µg/mL (≈ 79.7 µM)
MIC50 (Bacteroides uniformis [38]): 2 µg/mL (≈ 4.98 µM)
MIC90 (Bacteroides uniformis [38]): 32 µg/mL (≈ 79.7 µM)
MIC50 [39]: 2 µg/mL (≈ 4.98 µM)
MIC90 [39]: 16 µg/mL (≈ 39.9 µM)
